“Also recorded” adds a separate entry of the source. Where two headings read alike, the source gives them in different places.
How the values were obtained:
TraR = biological target: T1, TraR (Agrobacterium tumefaciens, UniProt P33905); test: cell-based; settings: for A. tumefaciens-TraR Inhibition [%]: 10 μM synthetic ligand against 100 nM OOHL; for A. tumefaciens-TraR Inhibition [%] / A. tumefaciens-TraR Activation [%] / inhibition at 10 µM: A. tumefaciens WCF47 (pCF372), normalized to OOHL; for activation at 10 µM: read-out: A. tumefaciens-TraR Activation [%]; for A. tumefaciens-TraR Activation [%]: 10 μM ligand; for inhibition at 10 µM: read-out: A. tumefaciens-TraR Inhibition [%], 10 μM synthetic ligand against 100 nM OOHL
T1 construct: These strains lack their AHL synthase (I) genes, but retain their native R genes; endogenous in cells; host or cells: A. tumefaciens WCF47 (Δ-traI) with PtraI-lacZ plasmid pCF372
T1 sequence (P33905 whole entry): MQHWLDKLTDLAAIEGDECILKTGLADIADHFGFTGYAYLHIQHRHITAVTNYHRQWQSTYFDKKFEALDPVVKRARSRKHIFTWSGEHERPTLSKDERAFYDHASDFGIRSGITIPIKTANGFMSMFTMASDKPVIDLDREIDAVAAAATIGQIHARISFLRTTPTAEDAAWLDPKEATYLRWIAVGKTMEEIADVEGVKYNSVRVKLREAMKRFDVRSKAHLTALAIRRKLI

elastase B production = test: microbe, parasite or virus in culture; format: cell-based, Pseudomonas aeruginosa; settings: for elastase B production inhibition: Example 2, concentration not stated (20 or 200 tested); for inhibition at 200 µM: Pseudomonas aeruginosa, PAO1, read-out: elastase B production inhibition
Description: Elastase B production assay in P. aeruginosa. Elastase B activity in P. aeruginosa was measured according to a previously reported method, with the following modifications. P. aeruginosa PAO1 was grown overnight in LB media at 37° C., after which it was diluted to an OD600=0.1. Portions (2 mL) of this culture was added to test tubes containing synthetic compounds to give final concentrations of 20 μM or 200 μM and incubated for 12-14 h at 37° C. with 200 rpm shaking. The OD600 was measured for each tube, after which the contents of the tubes were filtered through a […] Whatman filter to remove all cellular matter. A 100 μL-aliquot of the supernatant was added to 900 μL of an Elastin Congo Red Solution (5 mg of Elastin Congo red substrate per 1 mL of 100 mM Tris-HCl, 1 mM CaCl2 (pH 7.2)) and incubated for 12 h at 37° C. with 250 rpm shaking. The contents of these tubes were then filtered in order to remove unreacted Elastin Congo red substrate. Elastase B activity was then calculated (normalized) by dividing the absorbance of the cleaved Congo red (OD492) by the cell density (OD600 of the cells before first filtration).
Elastase B production assay in P. aeruginosa. Elastase B activity in P. aeruginosa was measured according to a previously reported method, with the following modifications. P. aeruginosa PAO1 was grown overnight at 37° C. and then diluted 1:10 with fresh LB medium. Portions (2 mL) of this culture were added to test tubes containing synthetic compounds to give final compound concentrations of 20 μM or 200 μM. The tubes were incubated for 12-14 h at 37° C. The OD600 was measured for each tube, after which the contents of the tubes were filtered through a 0.2 μm Whatman filter to remove all cellular matter. A 100 μL aliquot of the supernatant was added to 900 μL of an elastin-Congo red solution (5 mg of elastin-Congo red substrate per 1 mL of buffer (100 mM Tris-HCl, 1 mM CaCl2, pH 7.2)) and incubated for 12 h at 37° C. with 250 rpm shaking. The contents of these tubes were then filtered in order to remove unreacted elastin-Congo red substrate, and the supernatant containing cleaved Congo red was isolated. A 200 μL aliquot of the supernatant was added to a 96-well multititer plate, and the OD492 was measured. Elastase B activity was calculated by dividing the absorbance of the cleaved Congo red solution (OD492) by the cell density (OD600 of the cells before first filtration).

| Molecule | A. tumefaciens-TraR Inhibition [%] (TraR) | activation at 10 µM (TraR) | elastase B production inhibition (elastase B production; P. aeruginosa PAO1) | A. tumefaciens-TraR Activation [%] (TraR) | inhibition at 10 µM (TraR) | inhibition at 200 µM (elastase B production) | other results |
| --- | --- | --- | --- | --- | --- | --- | --- |
| O=C(Cc1ccc(Br)cc1)N[C@H]1CCOC1=O [A17, 4-bromo-phenylacetanoyl HL, reference compound] | 88% | 1% | ca. 76% | – | – | – | IC50 (TraR): 4.73 µM |
| O=C(CCCc1c[nH]c2ccccc12)N[C@H]1CCOC1=O [A18, indole AHL, reference compound] | 35% | – | ~67% | 0% | – | – | – |
| O=C(Cc1ccc(Br)cc1)N[C@H]1CCOC1=O [compound 8, N-(4-bromo-phenylacetanoyl)-L-homoserine lactone, reference compound] | – | – | – | 1% | ~90% | 77% | IC50 (TraR; read-out: TraR IC50, determined against 100 nM OOHL): 4.73 µM |
| O=C(Cc1ccc(-c2ccccc2)cc1)NC1CCOC1=O (stereo not shown) [B21, 4-phenyl PHL] | – | 0% | poorly antagonized elastase B production | – | ~70% | – | – |
| 3-nitro PHL [B17] | 46% | – | – | 0% | – | – | activation of elastase B production at high concentration (elastase B production; P. aeruginosa PAO1, 10-fold higher concentration (200 vs 20)): activate elastase B production; also recorded: capable of both inhibiting and activating elastase B production |
| O=C(Cc1ccc(-c2ccccc2)cc1)N[C@H]1CCOC1=O [C18, 4-phenyl PHL] | – | 0% | – | – | ~70% | 4% | Activation (%) (TraR; A. tumefaciens-TraR, Library C primary agonism screen): 0%; Inhibition (%) (TraR; A. tumefaciens-TraR, Library C primary antagonism screen): 67% |

Reference: patent US7910622B2, “Modulation of bacterial quorum sensing with synthetic ligands” (Wisconsin Alumni Research Foundation, priority 2007, dated 2011)
